Data published in patent US20100048950A1 (BOEHRINGER INGELHEIM INTERNATIONAL GMBH, priority 2007, published 2010).

Molecular target: T1, human glucocorticoid receptor (GR) complex (Homo sapiens, UniProt P04150)
T1 construct: made in house; host or cells: insect expression system (baculovirus lysate)
T1 sequence (P04150 1-777): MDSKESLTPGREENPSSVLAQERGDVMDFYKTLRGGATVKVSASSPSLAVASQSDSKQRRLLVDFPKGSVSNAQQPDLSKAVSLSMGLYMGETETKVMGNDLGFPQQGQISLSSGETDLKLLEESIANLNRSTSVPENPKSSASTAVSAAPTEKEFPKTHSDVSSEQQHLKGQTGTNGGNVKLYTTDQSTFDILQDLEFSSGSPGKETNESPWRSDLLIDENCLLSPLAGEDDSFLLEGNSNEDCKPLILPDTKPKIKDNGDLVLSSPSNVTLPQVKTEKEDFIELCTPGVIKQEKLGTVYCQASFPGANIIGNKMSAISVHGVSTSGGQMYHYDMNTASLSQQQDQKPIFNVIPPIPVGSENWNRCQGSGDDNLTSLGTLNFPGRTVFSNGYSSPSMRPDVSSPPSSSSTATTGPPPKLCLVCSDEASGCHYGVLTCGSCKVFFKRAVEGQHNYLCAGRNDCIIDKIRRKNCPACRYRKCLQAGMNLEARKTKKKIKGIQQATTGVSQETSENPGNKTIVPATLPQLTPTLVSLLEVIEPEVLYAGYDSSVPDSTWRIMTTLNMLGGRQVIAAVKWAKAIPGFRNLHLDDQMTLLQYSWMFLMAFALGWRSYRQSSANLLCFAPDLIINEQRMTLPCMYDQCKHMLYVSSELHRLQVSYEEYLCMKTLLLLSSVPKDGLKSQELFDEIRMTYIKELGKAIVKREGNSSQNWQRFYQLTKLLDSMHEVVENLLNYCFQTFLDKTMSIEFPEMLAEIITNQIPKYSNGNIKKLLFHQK
Assay: Glucocorticoid receptor competitive binding assay (fluorescence polarization)
Conditions: competition with TAMRA-labeled dexamethasone, read-out: potent activity (IC50) in the GR binding assay
Experimental: Compounds of the invention were evaluated for binding to the steroid receptor by a fluorescence polarization competitive binding assay. Detailed descriptions for preparation of recombinant glucocorticoid receptor (GR) complex used in the assay is described in U.S. Patent Application Publication No. US 2003/0017503, filed May 20, 2002, and incorporated herein by reference in its entirety. Preparation of the tetramethylrhodamine (TAMRA)-labeled dexamethasone probe was accomplished using a standard literature procedure (M. Pons et al., J. Steroid Biochem., 1985, 22, pp. 267-273).
The affinity of the probe for the steroid receptor was then determined in a titration experiment. The fluorescence polarization value of the probe in assay buffer was measured on an SLM-8100 fluorometer using the excitation and emission maximum values described above. Aliquots of expression vector lysate were added and fluorescence polarization was measured after each addition until no further change in polarization value was observed. Non-linear least squares regression analysis was used to calculate the dissociation constant of the probe from the polarization values obtained for lysate binding to the probe.
This assay uses fluorescence polarization (FP) to quantitate the ability of test compounds to compete with tetramethylrhodamine (TAMRA)-labeled dexamethasone for binding to a human glucocorticoid receptor (GR) complex prepared from an insect expression system. The assay buffer was: 10 mM TES, 50 mM KCl, 20 mM Na2MoO4.2H2O, 1.5 mM EDTA, 0.04% w/v CHAPS, 10% v/v glycerol, 1 mM dithiothreitol, pH 7.4. Test compounds were dissolved to 1 mM in neat DMSO and then further diluted to 10× assay concentration in assay buffer supplemented with 10% v/v DMSO. Test compounds were serially diluted at 10× assay concentrations in 10% DMSO-containing buffer in 96-well polypropylene plates. Binding reaction mixtures were prepared in 96-well black Dynex microtiter plates by sequential addition of the following assay components to each well: 15 μL of 10× test compound solution, 85 μL of GR-containing baculovirus lysate diluted 1:170 in assay buffer, and 50 μL of 15 nM TAMRA-labeled dexamethasone. Positive controls were reaction mixtures containing no test compound; negative controls (blanks) were reaction mixtures containing 0.7 μM to 2 μM dexamethasone. The binding reactions were incubated for 1 hour at room temperature and then read for fluorescence polarization in the LJL Analyst set to 550 nm excitation and 580 nm emission, with the Rhodamine 561 dichroic mirror installed. IC50 values were determined by iterative non-linear curve fitting of the FP signal data to a 4-parameter logistic equation.

Row | SMILES | IC50
1 | COc1ccccc1SCC(NS(=O)(=O)c1c(C)cc(C)cc1C)C(F)(F)F (stereo not drawn) [2,4,6-Trimethyl-N-[2,2,2-trifluoro-1-(2-methoxyphenylsulfanylmethyl)ethyl]benzenesulfonamide] | ≤ 100 nM
2 | Cc1cc(C)c(S(=O)(=O)NC(CSc2ccc(F)cc2Cl)C(F)(F)F)c(C)c1 (stereo not drawn) [N-[1-(2-Chloro-4-fluorophenylsulfanylmethyl)-2,2,2-trifluoroethyl]-2,4,6-trimethylbenzenesulfonamide] | ≤ 100 nM
3 | Cc1cc(C)c(S(=O)(=O)NC(CNc2c(Cl)cccc2Cl)C(F)(F)F)c(C)c1 (stereo not drawn) [N-{1-[(2,6-Dichlorophenylamino)methyl]-2,2,2-trifluoroethyl}-2,4,6-trimethylbenzenesulfonamide] | ≤ 100 nM
4 | Cc1cc(C)c(S(=O)(=O)NC(COc2cccc(C(F)(F)F)c2)C(F)(F)F)c(C)c1 (stereo not drawn) [2,4,6-Trimethyl-N-[2,2,2-trifluoro-1-(3-trifluoromethylphenoxymethyl)ethyl]benzenesulfonamide] | ≤ 100 nM
5 | Cc1cc(C)c(S(=O)(=O)NC(CNc2cccc(-c3cnco3)c2)C(F)(F)F)c(C)c1 (stereo not drawn) [2,4,6-Trimethyl-N-{2,2,2-trifluoro-1-[(3-oxazol-5-ylphenylamino)methyl]ethyl}benzenesulfonamide] | ≤ 100 nM
6 | Cc1cc(C)c(S(=O)(=O)NC(CNc2ccc(C#N)cc2Cl)C(F)(F)F)c(C)c1 (stereo not drawn) [N-{1-[(2-Chloro-4-cyanophenylamino)methyl]-2,2,2-trifluoroethyl}-2,4,6-trimethylbenzenesulfonamide] | ≤ 100 nM
7 | Cc1cc(C)c(S(=O)(=O)NC(COc2ccc(C)cc2Cl)C(F)(F)F)c(C)c1 (stereo not drawn) [N-[1-(2-Chloro-4-methylphenoxymethyl)-2,2,2-trifluoroethyl]-2,4,6-trimethylbenzenesulfonamide] | ≤ 100 nM
8 | CC[C@@](C)(CN(CCC#N)c1cccc2ccccc12)NS(=O)(=O)c1c(C)cc(C)cc1C [N—((S)-1-{[(2-Cyanoethyl)naphthalen-1-ylamino]methyl}-1-methylpropyl)-2,4,6-trimethylbenzenesulfonamide] | ≤ 100 nM
9 | Cc1cc(C)c(S(=O)(=O)NC(CNc2cccc(Cl)c2C#N)C(F)(F)F)c(C)c1 (stereo not drawn) [N-{1-[(3-Chloro-2-cyanophenylamino)methyl]-2,2,2-trifluoroethyl}-2,4,6-trimethylbenzenesulfonamide] | ≤ 100 nM
10 | Cc1cc(C)c(S(=O)(=O)NC(CSc2ccc(Br)cc2)C(F)(F)F)c(C)c1 (stereo not drawn) [N-[1-(4-Bromophenylsulfanylmethyl)-2,2,2-trifluoroethyl]-2,4,6-trimethylbenzenesulfonamide] | ≤ 100 nM
11 | Cc1cc(C)c(S(=O)(=O)NC(COc2ccccc2C)C(F)(F)F)c(C)c1 (stereo not drawn) [2,4,6-Trimethyl-N-(2,2,2-trifluoro-1-o-tolyloxymethylethyl)benzenesulfonamide] | ≤ 100 nM
12 | Cc1cc(C)c(S(=O)(=O)NC(CNc2ccccc2OC(F)(F)F)C(F)(F)F)c(C)c1 (stereo not drawn) [2,4,6-Trimethyl-N-{2,2,2-trifluoro-1-[(2-trifluoromethoxyphenylamino)methyl]ethyl}benzenesulfonamide] | ≤ 100 nM
13 | Cc1ccc(SCC(NS(=O)(=O)c2c(C)cc(C)cc2C)C(F)(F)F)c(C)c1 (stereo not drawn) [N-[1-(2,4-Dimethylphenylsulfanylmethyl)-2,2,2-trifluoroethyl]-2,4,6-trimethylbenzenesulfonamide] | ≤ 100 nM
14 | Cc1cc(C)c(S(=O)(=O)NC(CNc2ccccc2C#N)C(F)(F)F)c(C)c1 (stereo not drawn) [N-{1-[(2-Cyanophenylamino)methyl]-2,2,2-trifluoroethyl}-2,4,6-trimethylbenzenesulfonamide] | ≤ 100 nM
15 | CCN(CC(NS(=O)(=O)c1c(C)cc(C)cc1C)C(F)(F)F)c1ccccc1 (stereo not drawn) [N-{1-[(Ethylphenylamino)methyl]-2,2,2-trifluoroethyl}-2,4,6-trimethylbenzenesulfonamide] | ≤ 100 nM
16 | CCN(CC(NS(=O)(=O)c1c(C)cc(C)cc1C)C(F)(F)F)c1cccc(C)c1 (stereo not drawn) [N-{1-[(Ethyl-m-tolylamino)methyl]-2,2,2-trifluoroethyl}-2,4,6-trimethylbenzenesulfonamide] | ≤ 100 nM
17 | Cc1cc(C)c(S(=O)(=O)NC(COc2cccc(Cl)c2)C(F)(F)F)c(C)c1 (stereo not drawn) [N-[1-(3-Chlorophenoxymethyl)-2,2,2-trifluoroethyl]-2,4,6-trimethylbenzenesulfonamide] | ≤ 100 nM
18 | Cc1cc(C)c(S(=O)(=O)NC(COc2cc(F)c(F)cc2F)C(F)(F)F)c(C)c1 (stereo not drawn) [2,4,6-Trimethyl-N-[2,2,2-trifluoro-1-(2,4,5-trifluorophenoxymethyl)ethyl]benzenesulfonamide] | ≤ 100 nM
19 | Cc1cc(C)c(S(=O)(=O)NC(CSc2cccc(OC(F)(F)F)c2)C(F)(F)F)c(C)c1 (stereo not drawn) [2,4,6-Trimethyl-N-[2,2,2-trifluoro-1-(3-trifluoromethoxyphenylsulfanylmethyl)ethyl]benzenesulfonamide] | ≤ 100 nM
20 | Cc1cc(C)c(S(=O)(=O)NC(CNc2cc(C(F)(F)F)ccc2Cl)C(F)(F)F)c(C)c1 (stereo not drawn) [N-{1-[(2-Chloro-5-trifluoromethylphenylamino)methyl]-2,2,2-trifluoroethyl}-2,4,6-trimethylbenzenesulfonamide] | ≤ 100 nM
21 | COc1ccc(OC)c(SCC(NS(=O)(=O)c2c(C)cc(C)cc2C)C(F)(F)F)c1 (stereo not drawn) [N-[1-(2,5-Dimethoxyphenylsulfanylmethyl)-2,2,2-trifluoroethyl]-2,4,6-trimethylbenzenesulfonamide] | ≤ 100 nM
22 | Cc1cc(C)c(S(=O)(=O)NC(COc2ccc(Cl)cc2F)C(F)(F)F)c(C)c1 (stereo not drawn) [N-[1-(4-Chloro-2-fluorophenoxymethyl)-2,2,2-trifluoroethyl]-2,4,6-trimethylbenzenesulfonamide] | ≤ 100 nM
23 | Cc1cc(C)c(S(=O)(=O)NC(CSc2cc(Cl)ccc2Cl)C(F)(F)F)c(C)c1 (stereo not drawn) [N-[1-(2,5-Dichlorophenylsulfanylmethyl)-2,2,2-trifluoroethyl]-2,4,6-trimethylbenzenesulfonamide] | ≤ 100 nM
24 | CC[C@@H](CNc1ccc(C)cc1C)NS(=O)(=O)c1c(C)cc(C)cc1C [N-{(S)-1-[(2,4-Dimethylphenylamino)methyl]propyl}-2,4,6-trimethylbenzenesulfonamide] | ≤ 100 nM
25 | Cc1cc(C)c(S(=O)(=O)NC(CSc2cccc(Cl)c2)C(F)(F)F)c(C)c1 (stereo not drawn) [N-[1-(3-Chlorophenylsulfanylmethyl)-2,2,2-trifluoroethyl]-2,4,6-trimethylbenzenesulfonamide] | ≤ 100 nM
26 | Cc1cc(C)c(S(=O)(=O)NC(CSc2ccccc2OC(F)(F)F)C(F)(F)F)c(C)c1 (stereo not drawn) | ≤ 100 nM
27 | Cc1cc(C)c(S(=O)(=O)NC(CSc2ccc(Br)cc2OC(F)(F)F)C(F)(F)F)c(C)c1 (stereo not drawn) [N-[1-(4-Bromo-2-trifluoromethoxyphenylsulfanylmethyl)-2,2,2-trifluoroethyl]-2,4,6-trimethylbenzenesulfonamide] | ≤ 100 nM
28 | Cc1cc(C)c(S(=O)(=O)NC(CSc2ccccc2Br)C(F)(F)F)c(C)c1 (stereo not drawn) [N-[1-(2-Bromophenylsulfanylmethyl)-2,2,2-trifluoroethyl]-2,4,6-trimethylbenzenesulfonamide] | ≤ 100 nM
29 | CCC(CSc1ccccc1)NS(=O)(=O)c1c(C)cc(C)cc1C (stereo not drawn) [2,4,6-Trimethyl-N-(1-phenylsulfanylmethylpropyl)benzenesulfonamide] | ≤ 100 nM
30 | COc1cc(NCC(NS(=O)(=O)c2c(C)cc(C)cc2C)C(F)(F)F)cc(C(F)(F)F)c1 (stereo not drawn) [2,4,6-Trimethyl-N-{2,2,2-trifluoro-1-[(3-methoxy-5-trifluoromethylphenylamino)methyl]ethyl}benzenesulfonamide] | ≤ 100 nM
